These results are taken from PubChem BioAssay (NCI).

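Where inhibition never reached the appropriate level, the endpoint shown equals the highest concentration tested. Otherwise, values were interpolated linearly from a five-concentration, 48-hour dose response in 96-well plates. Here, GI50 denotes the concentration required for 50% inhibition of growth. The concentration for full growth arrest is given as TGI.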

Test systems include EKVX NSCLC; HCT-116 colon; NCI-H23 lung; COLO 205 colon; U251 CNS; MOLT-4 leukemia; LOX IMVI melanoma; NCI/ADR-RES ovarian; HS 578T breast; MALME-3M melanoma.
What all share (assay): NCI anticancer screen, dose series, 48 h

In the case of `CN1CCC(n2[nH]c(-c3ccccc3)c(Cc3ccccc3)c2=O)CC1`, the TGI in the assay with EKVX NSCLC was > 100 µM; in the assay with HCT-116 colon it was > 100 µM; in the assay with NCI-H23 lung, > 100 µM; with COLO 205 colon, > 100 µM; in the assay on U251 CNS, > 100 µM; with MOLT-4 leukemia it was 89.7 µM. The TGI in the assay with LOX IMVI melanoma, in the assay on NCI/ADR-RES ovarian, in the assay on HS 578T breast and with MALME-3M melanoma was > 100 µM in each case.
On to `Cc1ccc(F)cc1NC(=O)c1cc(Cl)ccc1Nc1ccccc1`, for which the GI50 in the assay with HCT-116 colon is > 100 µM; with NCI-H23 lung, > 100 µM; in the assay on COLO 205 colon, > 100 µM; in the assay on U251 CNS, > 100 µM; in the assay on MOLT-4 leukemia, 37.9 µM; in the assay with LOX IMVI melanoma it was > 100 µM. In addition, the GI50 in the assay on NCI/ADR-RES ovarian was > 100 µM; in the assay with HS 578T breast, 36.1 µM; with MALME-3M melanoma, > 100 µM. Besides, the TGI in the assay on HCT-116 colon, in the assay on NCI-H23 lung, in the assay with COLO 205 colon, in the assay on U251 CNS, with MOLT-4 leukemia and with LOX IMVI melanoma was > 100 µM each time. The TGI with NCI/ADR-RES ovarian, in the assay on HS 578T breast and with MALME-3M melanoma was > 100 µM each time.
In the case of `O=[N+]([O-])c1cccc(-c2cc(-c3cc(Br)ccc3O)[nH]n2)c1`, the GI50 in the assay with EKVX NSCLC was 2 µM; with HCT-116 colon it was 1.46 µM; with NCI-H23 lung, 2.06 µM; with COLO 205 colon, 2.23 µM; in the assay with U251 CNS, 3.24 µM; in the assay with MOLT-4 leukemia, 1.72 µM. Besides, the GI50 is 2.73 µM in the assay on LOX IMVI melanoma, 3.11 µM in the assay with NCI/ADR-RES ovarian, 2.15 µM in the assay on HS 578T breast and 2.21 µM in the assay with MALME-3M melanoma. In addition, the TGI amounted to 7.91 µM in the assay with EKVX NSCLC; 2.86 µM in the assay on HCT-116 colon; 6.11 µM with NCI-H23 lung; 5.16 µM in the assay on COLO 205 colon; 11.9 µM in the assay on U251 CNS; 4.68 µM in the assay on MOLT-4 leukemia. The TGI in the assay on LOX IMVI melanoma came to 8.62 µM; in the assay on NCI/ADR-RES ovarian, 8.94 µM; in the assay on HS 578T breast it was 9.29 µM; with MALME-3M melanoma, 5.52 µM.
As to `COc1ccc(C(=O)CC(c2ccc(OC)c(OC)c2)c2c(O)c3ccccc3oc2=O)cc1OC` (centres undefined), the TGI with EKVX NSCLC, in the assay on HCT-116 colon, with NCI-H23 lung, in the assay with COLO 205 colon, in the assay with U251 CNS and in the assay on MOLT-4 leukemia was > 100 µM in each case. Further, the TGI with LOX IMVI melanoma, in the assay with NCI/ADR-RES ovarian, in the assay with HS 578T breast and in the assay with MALME-3M melanoma was > 100 µM each time.
Consider `COc1ccc2c(c1)[C@@]1(C)CCC3c4ccc(O)cc4CCC3C1C2` (some centres undefined), for which the GI50 is 17.6 µM with EKVX NSCLC; 14.4 µM in the assay on HCT-116 colon; 16.8 µM in the assay with NCI-H23 lung; 14.7 µM in the assay with COLO 205 colon; 15.6 µM in the assay with U251 CNS; 17.8 µM in the assay with MOLT-4 leukemia. Also, the GI50 is 11 µM in the assay on LOX IMVI melanoma, 14.4 µM in the assay on NCI/ADR-RES ovarian, 19.4 µM in the assay on HS 578T breast and 18.7 µM in the assay with MALME-3M melanoma. The TGI in the assay with EKVX NSCLC came out at 33.2 µM; in the assay on HCT-116 colon it was 27.5 µM; in the assay with NCI-H23 lung, 30.8 µM; with COLO 205 colon, 31 µM; in the assay on U251 CNS it was 29.9 µM; in the assay with MOLT-4 leukemia, 64.2 µM. Further, the TGI in the assay on LOX IMVI melanoma came out at 24.2 µM; with NCI/ADR-RES ovarian, 29.3 µM; in the assay on HS 578T breast, 39.3 µM; with MALME-3M melanoma it was 34.8 µM.
Regarding `CC[C@@]1(O)C(=O)OCc2c1cc1n(c2=O)Cc2cc3c(NC(=O)CN)cccc3nc2-1`, the TGI in the assay with EKVX NSCLC is > 100 µM; with HCT-116 colon, > 56.1 µM; with NCI-H23 lung it was 4.26 µM; in the assay with COLO 205 colon, > 51.3 µM; with U251 CNS, 5.16 µM; in the assay on MOLT-4 leukemia, 0.161 µM. Moreover, the TGI in the assay on NCI/ADR-RES ovarian and in the assay on HS 578T breast was > 100 µM each time.
As to `NC1=NC(c2ccc(F)cc2)C2=C(N1)c1ccc3ccccc3c1OCC2` (centres undefined), the GI50 in the assay on EKVX NSCLC is 5.95 µM; in the assay with NCI-H23 lung, 50.7 µM; in the assay with U251 CNS, 8.49 µM; in the assay with LOX IMVI melanoma, > 100 µM; with NCI/ADR-RES ovarian, 43.2 µM; with HS 578T breast, 11.4 µM. The GI50 with MALME-3M melanoma is 18.5 µM. For the same compound, the TGI is 75.2 µM in the assay with EKVX NSCLC; > 100 µM with NCI-H23 lung; > 100 µM in the assay on U251 CNS; > 100 µM in the assay with LOX IMVI melanoma; > 100 µM with NCI/ADR-RES ovarian; > 100 µM with HS 578T breast. Besides, the TGI in the assay on MALME-3M melanoma was > 100 µM.
In the case of `COc1ccc(/C=C\c2cc(OC)c(OC)c(OC)c2)cc1OCC(=O)Nc1nc2ccc(OC(F)(F)F)cc2s1`, the GI50 is 7.89 µM with EKVX NSCLC; 3.92 µM in the assay on HCT-116 colon; 4.39 µM with NCI-H23 lung; 43.3 µM in the assay with COLO 205 colon; 3.37 µM in the assay with U251 CNS; 4.21 µM in the assay with MOLT-4 leukemia. The GI50 with LOX IMVI melanoma is 4.77 µM; in the assay on NCI/ADR-RES ovarian, 2.7 µM; with HS 578T breast, 4.33 µM. The TGI in the assay with EKVX NSCLC, in the assay on HCT-116 colon, in the assay with NCI-H23 lung, in the assay with COLO 205 colon, with U251 CNS and in the assay on MOLT-4 leukemia was > 100 µM each time. Further, the values for the TGI in the assay on LOX IMVI melanoma, in the assay on NCI/ADR-RES ovarian and with HS 578T breast were > 100 µM, 8.62 µM and > 100 µM, respectively.
For the compound `CC(C)=CC1CC(C)C2(CCC3(C)CC4C(C(=O)CC4(C)O)/C(C=O)=C\CC32)O1` (centres undefined), the TGI turned out to be 0.346 µM in the assay with EKVX NSCLC; 0.15 µM in the assay on HCT-116 colon; 0.264 µM with NCI-H23 lung; 0.153 µM in the assay with COLO 205 colon; 0.197 µM in the assay on U251 CNS; 0.0483 µM with MOLT-4 leukemia. The TGI in the assay on LOX IMVI melanoma is 0.182 µM; with NCI/ADR-RES ovarian, 0.443 µM; in the assay on HS 578T breast, 0.421 µM.
Take `NC(N)=N/N=C/c1c(-c2ccc(Cl)c([N+](=O)[O-])c2)nc2ccccn12`: the GI50 is 2.5 µM in the assay with EKVX NSCLC; 0.362 µM in the assay on HCT-116 colon; 1.92 µM with NCI-H23 lung; 1.68 µM in the assay with MOLT-4 leukemia; > 100 µM in the assay on NCI/ADR-RES ovarian; 24.2 µM in the assay with HS 578T breast. Moreover, the TGI is 13 µM with EKVX NSCLC; 1.55 µM in the assay with HCT-116 colon; 3.95 µM with NCI-H23 lung; 3.64 µM with MOLT-4 leukemia; > 100 µM with NCI/ADR-RES ovarian; 60.2 µM in the assay on HS 578T breast.
